ChEMBL document CHEMBL1133833, “Dopaminergic 7-aminotetrahydroindolizines: ex-chiral pool synthesis and preferential D3 receptor binding” (Bioorg Med Chem Lett, 2001)

Columns and labels:
D(1A) dopamine receptor = D(1A) dopamine receptor (Bos taurus, UniProt Q95136); test: In vitro ability to displace [3H]SCH-23390 from bovine Dopamine receptor D1 in striatal membranes.
D(2) dopamine receptor [1] = biological target: T1, D(2) dopamine receptor (Bos taurus, UniProt P20288); test: In vitro ability to displace [3H]-spiperone from bovine cloned Dopamine receptor D2 stably expressed in CHO cells.; assay type: cell-based
T1 sequence (P20288 whole entry): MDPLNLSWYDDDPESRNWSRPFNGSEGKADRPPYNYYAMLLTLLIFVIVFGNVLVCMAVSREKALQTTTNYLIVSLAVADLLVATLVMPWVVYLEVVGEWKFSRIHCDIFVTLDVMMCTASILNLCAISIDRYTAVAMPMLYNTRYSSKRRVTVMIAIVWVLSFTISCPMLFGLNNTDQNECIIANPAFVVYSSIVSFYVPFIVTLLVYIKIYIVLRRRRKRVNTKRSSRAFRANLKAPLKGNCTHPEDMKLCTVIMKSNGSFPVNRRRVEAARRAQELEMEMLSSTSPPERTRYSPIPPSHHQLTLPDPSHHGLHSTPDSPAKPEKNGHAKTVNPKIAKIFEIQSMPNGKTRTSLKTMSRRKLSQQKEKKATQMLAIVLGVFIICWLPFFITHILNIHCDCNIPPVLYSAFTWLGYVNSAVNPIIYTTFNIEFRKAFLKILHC

D(3) dopamine receptor = D(3) dopamine receptor (Homo sapiens, UniProt P35462)
Chain of D(3) dopamine receptor (P35462 whole entry): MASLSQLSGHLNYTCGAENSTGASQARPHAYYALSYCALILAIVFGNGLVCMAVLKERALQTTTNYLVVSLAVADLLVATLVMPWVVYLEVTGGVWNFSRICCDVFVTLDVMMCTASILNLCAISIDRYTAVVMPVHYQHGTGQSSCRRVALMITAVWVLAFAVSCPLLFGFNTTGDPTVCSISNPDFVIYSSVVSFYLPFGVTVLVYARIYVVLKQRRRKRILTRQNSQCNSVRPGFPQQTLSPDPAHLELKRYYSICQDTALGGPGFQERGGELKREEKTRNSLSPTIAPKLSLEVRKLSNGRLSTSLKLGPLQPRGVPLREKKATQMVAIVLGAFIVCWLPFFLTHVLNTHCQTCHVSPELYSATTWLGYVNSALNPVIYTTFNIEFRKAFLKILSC
Description: In vitro ability to displace [3H]spiperone from human cloned Dopamine receptor D3 stably expressed in CHO cells.

D(2) dopamine receptor [2] = biological target: T1, D(2) dopamine receptor; test: In vitro ability to displace [3H]pramipexole from high affinity binding sites of bovine D2 receptors in striatal membranes.

Chain of D(1A) dopamine receptor (Q95136 whole entry): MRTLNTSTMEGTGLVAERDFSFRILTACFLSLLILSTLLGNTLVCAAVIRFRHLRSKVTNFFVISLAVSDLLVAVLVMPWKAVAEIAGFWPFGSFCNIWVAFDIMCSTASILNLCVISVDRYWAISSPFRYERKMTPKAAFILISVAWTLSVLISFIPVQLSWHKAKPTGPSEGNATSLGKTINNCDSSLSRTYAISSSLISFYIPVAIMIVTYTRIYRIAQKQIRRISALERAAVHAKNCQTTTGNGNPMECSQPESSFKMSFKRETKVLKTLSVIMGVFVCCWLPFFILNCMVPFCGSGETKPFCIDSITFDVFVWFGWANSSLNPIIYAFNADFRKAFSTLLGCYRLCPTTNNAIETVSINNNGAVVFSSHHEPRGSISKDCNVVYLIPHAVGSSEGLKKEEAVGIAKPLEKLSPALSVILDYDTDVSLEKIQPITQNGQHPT

Ki (D(1A) dopamine receptor) [µM] | Ki (D(2) dopamine receptor [1]) [µM] | Ki (D(3) dopamine receptor) [µM] | Ki (D(2) dopamine receptor [2]) [µM] | Compound
80 | 12 | 0.51 | 0.38 | CCCN(CCC)[C@@H]1CCn2ccc(C=O)c2C1
100 | 6.1 | 0.33 | 0.2 | CCCN(CCC)[C@@H]1CCn2ccc(CO)c2C1
68 | 4 | 0.75 | 0.38 | CCCN(CCC)[C@H]1CCn2ccc(C)c2C1
71 | 12 | 2.1 | 1 | CCCN(CCC)[C@@H]1CCn2ccc(C)c2C1
> 100 | 5.9 | 3.6 | 1.6 | CCCN(CCC)[C@H]1CCn2ccc(C=O)c2C1
> 100 | > 100 | 8.6 | 13 | CCCN(CCC)[C@H]1CCn2cc(CO)cc2C1
> 100 | 55 | 9.7 | 8 | CCCN(CCC)[C@H]1CCn2ccc(CO)c2C1

The remaining lines, values behind:

Compound | Ki (D(1A) dopamine receptor) [µM] | Ki (D(2) dopamine receptor [1]) [µM] | Ki (D(3) dopamine receptor) [µM] | Ki (D(2) dopamine receptor [2]) [µM]
CCCN(CCC)[C@@H]1CCn2cc(C)cc2C1 | 83 | 17 | 1.3 | 0.8
CCCN(CCC)[C@@H]1CCn2c(CO)ccc2C1 | > 100 | 37 | 7.4 | 4.7
CCCN(CCC)[C@@H]1CCn2cc(CO)cc2C1 | > 100 | 34 | 1.4 | 1
CCCN(CCC)[C@H]1CCn2c(CO)ccc2C1 | 13 | 5.5 | 0.42 | 0.087
CCCN(CCC)[C@@H]1CCn2c(C=O)ccc2C1 | 47 | 21 | 1.8 | 1.7
CCCN(CCC)[C@H]1CCn2c(C)ccc2C1 | 29 | 3.8 | 0.43 | 0.15
CCCN(CCC)[C@H]1CCn2cc(C)cc2C1 | 44 | 9.6 | 0.77 | 0.64
CCCN(CCC)[C@@H]1CCn2cccc2C1 | > 100 | 4.1 | 0.56 | 0.15
CCCN(CCC)[C@@H]1CCn2c(C)ccc2C1 | 12 | 1.3 | 0.59 | 0.43
CCCN(CCC)[C@H]1CCn2c(C=O)ccc2C1 | 26 | – | – | 0.021
